Literature values as cited in patent US20040166069A1, “Boosting Tyrosinase Inhibiting Activity of Skin Whitening and Sunscreen Compositions” (priority 2003, published 2004).

Tested on: de-pigmentation
Conditions: relative to hydroquinone

OC[C@H]1O[C@@H](Oc2ccc(O)cc2)[C@H](O)[C@@H](O)[C@@H]1O [arbutin]
quantity required compared to the quantity of hydroquinone used to achieve a similar effect: over 100 times

O=C1O[C@H]([C@@H](O)CO)C(O)=C1O [ascorbic acid]
quantity required compared to the quantity of hydroquinone used to achieve a similar effect: 17 times
